Patent US5432159A, “N-(α-substituted-pyridinyl)carbonyl dipeptide antihypertensive agents” (Lacer S.A., priority 1991, dated 1995)

Tests used:
[1] = system: Angiotensin I-Induced Contractions in Guinea-Pig Ileum; assay: Inhibition of Angiotensin I-induced contractions in guinea-pig ileum; details: final bath concentration 10 ng/ml; Angiotensin I 100 ng/ml; compound added 2 min before agonist; average of ilea from 5 guinea-pigs
Protocol: Segments of 1.5 cm of freshly excised and washed terminal ileum were suspended in 25-ml tissue baths containing Tyrode's solution at 31° C. and bubbled with 95% O2 -5% CO2. With an initial load of 1.0 g, the resting tension after equilibration and the responses to Angiotensin I or Angiotensin II (both at 100 ng/ml) were monitored and recorded by means of an Ealing isometric transducer and a Lectromed polygraph. Several compounds of this invention were tested in this system, adding them to the bath 2 min. before the respective agonist.
At final bath concentrations of 10 ng/ml, the inhibitory effect of the tested compounds regarding the Angiotensin I-induced contractions was determined. The obtained results are given in Table I. All % inhibitions given therein are the average of results obtained with segments of ilea from 5 guinea-pigs. At final bath concentrations of 1 μg/ml none of the tested compounds produced an appreciable modification of the contractions induced by Angiotensin II.

[2] = system: spontaneously hypertensive rats; assay: Antihypertensive activity in spontaneously hypertensive rats (SHR), tail cuff systolic blood pressure; format: in vivo; details: for average reduction of the SBP: 1 h after administration, significantly different from control
Protocol: In this recognized model of hypertension, male spontaneously hypertensive rats (315 to 376 g) with systolic blood pressures (SBP) >160 mm Hg were used. Systolic blood pressures were recorded on conscious animals by a tail cuff method (FS-40 blood pressure/pulse monitor). Prior to all measurements, the rats were placed in a restraining cylinder. […] The pressures were monitored again 1, 2, 3, 4 and 24 h after administration of the test compounds. A control group (n=18) was included for comparison purposes.

[3] = oral 30 mg/kg, after 2, 3, 4 and 24 h, Duncan-Kramer test, p<0.05

With `C[C@H](CS)C(=O)N1CCC[C@H]1C(=O)O` [Captopril, D-3-mercapto-2-methylpropanoyl-L-proline, reference compound] the “% Inhibition of Angiotensin I-induced contractions” value (“% Inhibition” below) [1] was 28.9%, the “average reduction of the SBP” value ([2]; oral 30 mg/kg) was 17.2±8.49 mm Hg and the “SBP reduction versus control” value ([2]; oral 30 mg/kg, after 24 h) was “inactive”.
With `CCOC(=O)c1cccc(C(=O)N[C@@H](C)C(=O)N2CCC[C@H]2C(=O)OCC)n1` [Compound No. 8, N-[(2-Ethoxycarbonyl-6-pyridinyl)carbonyl]-L-alanyl-L-proline ethyl ester] the “average reduction of the SBP” value ([2]; oral 30 mg/kg) was 32.6±7.49 mm Hg, the “SBP reduction versus control” value [2, 3] was “significantly different from the control” and the “antihypertensive effect” value ([2]; oral 30 mg/kg, overall) was “significant antihypertensive effect”. The “antihypertensive effect” value ([2]; oral doses of 7.5 and 15 mg/kg) was “Antihypertensive effects were also observed”.
For `CCOC(=O)[C@@H]1CCCN1C(=O)[C@H](C)NC(=O)c1ccc[nH]c1=O` [Compound No. 21, N-[(1,2-Dihydro-2-oxo-3-pyridinyl)carbonyl]-L-alanyl-L-prolineethyl ester], the “% Inhibition” value [1] was 30.7%, the “SBP reduction, time course” value ([2]; oral 30 mg/kg, monitored 1, 2, 3, 4 and 24 h) was “significant reduction only after 2 h” and the “antihypertensive effect” value ([2]; oral 30 mg/kg, overall) was “significant antihypertensive effect”. The “SBP reduction” value ([2]; oral 45 mg/kg, after 2, 3, 4 and 24 h) was “significant”.
`C[C@H](NC(=O)c1cccc(Cl)n1)C(=O)N1CCC[C@H]1C(=O)O` [Compound No. 24, N-[(6-Chloro-2-pyridinyl)carbonyl]-L-atanyl-L-proline] was tested, and the “% Inhibition” value [1] was 20.6%.
With `C[C@H](NC(=O)c1cc[nH]c(=S)c1)C(=O)N1CCC[C@H]1C(=O)O` [Compound No. 27, N-[(1,2-dihydro-2-thioxo-4-pyridinyl)carbonyl]-L-alanyl-L-proline] the “% Inhibition” value [1] was 18.1%, the “average reduction of the SBP” value ([2]; oral 30 mg/kg) was 28.4±3.16 mm Hg and the “SBP reduction versus control” value [2, 3] was “significantly different from the control”. The “antihypertensive effect” value ([2]; oral 30 mg/kg, overall) was “significant antihypertensive effect” and the “antihypertensive effect” value ([2]; oral doses of 7.5 and 15 mg/kg) was “Antihypertensive effects were also observed”.
For `C[C@H](NC(=O)c1ccc(=S)[nH]c1)C(=O)N1CCC[C@H]1C(=O)O` [Compound No. 29, N-[(1,6-dihydro-6-thioxo-3-pyridinyl)carbonyl]-L-alanyl-L-proline], the “% Inhibition” value [1] was 16.2%.
In the case of `C[C@H](NC(=O)c1ccc(=O)[nH]c1)C(=O)N1CCC[C@H]1C(=O)O` [Compound No. 35, N-[(1,6-dihydro-6-oxo-3-pyridinyl)carbonyl]-L-alanyl-L-proline], the “% Inhibition” value [1] is reported as 16.0%.
